Results reported in US20030171218A1, “Substituted 3-heteroaryl(amino- or oxy)pyrrolidin-2-ones, their preparation and use as herbicides or plant growth regulators” (priority 2001, published 2003).

Experiments:
[1] = system: harmful plants such as Digitaria sanguinalis, Echinochloa crus-galli, Setaria faberi, Setaria viridis, Sorghum halepense, Abutilon theophrasti, Amaranthum …; assay: Post-emergence effect on weeds (greenhouse pot test); type: in vivo, monocotyledonous and dicotyledonous weeds; conditions: application rate of 1 kg and less of active substance per hectare; treated at three-leaf stage; scored visually after about 3 to 4 weeks by comparison with untreated controls
Protocol: Seeds or rhizome pieces of monocotyledonous and dicotyledonous weeds are placed in sandy loam soil in plastic pots, covered with soil and grown in a greenhouse under good growth conditions. Three weeks after sowing, the test plants are treated at the three-leaf stage. The compounds according to the invention which were formulated as wettable powders or emulsion concentrates are sprayed, at various dosages, onto the green parts of the plants at an application rate of 600 to 800 l of water/ha (converted). After the test plants have remained in the greenhouse for about 3 to 4 weeks under optimum growth conditions, the effect of the preparations is scored visually by comparison with untreated controls. The agents according to the invention also have good herbicidal activity post-emergence against a broad spectrum of economically important weed grasses and broad-leafed weeds.

[2] = system: weed plants such as Digitaria sanguinalis, Echinochloa crus-galli, Setaria faberi, Setaria viridis, Sorghum halepense, Abutilon theophrasti, Amaranthum …; assay: Pre-emergence effect on weeds (greenhouse pot test); type: in vivo, monocotyledonous and dicotyledonous weed plants; conditions: application rate of 1 kg or less of active substance per hectare; scored visually after 3 to 4 weeks by comparison with untreated controls
Source text: Seeds or rhizome pieces of monocotyledonous and dicotyledonous weed plants are placed in sandy loam soil in plastic pots and covered with soil. The compounds according to the invention which are formulated in the form of wettable powders or emulsion concentrates are then applied to the surface of the soil cover in the form of aqueous suspensions or emulsions at an application rate of 600 to 800 l of water/ha (converted), in various dosages.
After the treatment, the pots are placed in a greenhouse and kept under good growth conditions for the weeds. After the test plants have emerged, the damage to the plants or the negative effect on the emergence is scored visually after a test period of 3 to 4 weeks by comparison with untreated controls. As shown by the test results, compounds according to the invention have good herbicidal pre-emergence activity against a broad spectrum of weed grasses and broad-leafed weeds.

SMILES | herbicidal activity post-emergence [1] | herbicidal activity pre-emergence [2]
Cc1cccc(N2CCC(N(C)c3nc(N)nc(C(C)C)n3)C2=O)c1 (stereo not shown) [Example A74] | very good herbicidal activity | very good herbicidal activity
CC(C)c1nc(N)nc(N(C)C2CCN(c3cccc(OC(F)(F)F)c3)C2=O)n1 (stereo not shown) [Example A75] | very good herbicidal activity | very good herbicidal activity
CC(C)c1nc(N)nc(N(C)C2CCN(c3cccc(F)c3)C2=O)n1 (stereo not shown) [Example A76] | very good herbicidal activity | very good herbicidal activity
COc1cccc(N2CCC(N(C)c3nc(N)nc(C(C)(C)F)n3)C2=O)c1 (stereo not shown) [Example A77] | very good herbicidal activity | very good herbicidal activity
Cc1cc(C)cc(N2CCC(N(C)c3nc(N)nc(C(C)(C)F)n3)C2=O)c1 (stereo not shown) [Example A78] | very good herbicidal activity | very good herbicidal activity
CN(c1nc(N)nc(C(C)(C)F)n1)C1CCN(c2cccc(Cl)c2)C1=O (stereo not shown) [Example A79] | very good herbicidal activity | very good herbicidal activity
CN(c1nc(N)nc(C(C)(C)F)n1)C1CCN(c2cccc(OC(F)(F)F)c2)C1=O (stereo not shown) [Example A80] | very good herbicidal activity | very good herbicidal activity
CN(c1nc(N)nc(C(C)(C)F)n1)C1CCN(c2cccc(C(F)(F)F)c2)C1=O (stereo not shown) [Example A81] | very good herbicidal activity | very good herbicidal activity
CN(c1nc(N)nc(C(C)(C)F)n1)C1CCN(c2cccc(F)c2)C1=O (stereo not shown) [Example A82] | very good herbicidal activity | very good herbicidal activity
Cc1cc(N2CCC(N(C)c3nc(N)nc(C(C)(C)F)n3)C2=O)ccc1F (stereo not shown) [Example A83] | very good herbicidal activity | very good herbicidal activity
Cc1cccc(N2CCC(N(C)c3nc(N)nc(C(C)(C)F)n3)C2=O)c1 (stereo not shown) [Example A84] | very good herbicidal activity | very good herbicidal activity
Cc1cccc(N2CCC(Nc3nc(N)nc(C(C)(C)F)n3)C2)c1 (stereo not shown) [Example E7] | very good herbicidal activity | very good herbicidal activity
Cc1cccc(N2CCC(Nc3nc(N)nc(C(C)F)n3)C2)c1 (stereo not shown) [Example E8] | very good herbicidal activity | very good herbicidal activity
Cc1cccc(N2CCC(Nc3nc(N)nc(C(C)C)n3)C2)c1 (stereo not shown) [Example E9] | very good herbicidal activity | very good herbicidal activity
Cc1cc(N2CCC(Nc3nc(N)nc(C(C)(C)F)n3)C2)ccc1F (stereo not shown) [Example E10] | very good herbicidal activity | very good herbicidal activity
Cc1cc(N2CCC(Nc3nc(N)nc(C(C)F)n3)C2)ccc1F (stereo not shown) [Example E11] | very good herbicidal activity | very good herbicidal activity
Cc1cc(N2CCC(Nc3nc(N)nc(C(C)C)n3)C2)ccc1F (stereo not shown) [Example E12] | very good herbicidal activity | very good herbicidal activity
CC(C)(F)c1nc(N)nc(NC2CCN(c3cccc(F)c3)C2)n1 (stereo not shown) [Example E13] | very good herbicidal activity | very good herbicidal activity

SMILES | herbicidal activity post-emergence [1] | herbicidal activity pre-emergence [2]
CC(F)c1nc(N)nc(NC2CCN(c3cccc(F)c3)C2)n1 (stereo not shown) [Example E14] | very good herbicidal activity | very good herbicidal activity
CC(C)c1nc(N)nc(NC2CCN(c3cccc(F)c3)C2)n1 (stereo not shown) [Example E15] | very good herbicidal activity | very good herbicidal activity
CC(C)(F)c1nc(N)nc(NC2CCN(c3cccc(Cl)c3)C2)n1 (stereo not shown) [Example E16] | very good herbicidal activity | very good herbicidal activity
CC(F)c1nc(N)nc(NC2CCN(c3cccc(Cl)c3)C2)n1 (stereo not shown) [Example E17] | very good herbicidal activity | very good herbicidal activity
CC(C)c1nc(N)nc(NC2CCN(c3cccc(Cl)c3)C2)n1 (stereo not shown) [Example E18] | very good herbicidal activity | very good herbicidal activity
CC(C)(F)c1nc(N)nc(NC2CCN(c3cccc(C(F)(F)F)c3)C2)n1 (stereo not shown) [Example E19] | very good herbicidal activity | very good herbicidal activity
CC(F)c1nc(N)nc(NC2CCN(c3cccc(C(F)(F)F)c3)C2)n1 (stereo not shown) [Example E20] | very good herbicidal activity | very good herbicidal activity
CC(C)c1nc(N)nc(NC2CCN(c3cccc(C(F)(F)F)c3)C2)n1 (stereo not shown) [Example E21] | very good herbicidal activity | very good herbicidal activity
CC(C)(F)c1nc(N)nc(NC2CCN(c3cccc(OC(F)(F)F)c3)C2)n1 (stereo not shown) [Example E22] | very good herbicidal activity | very good herbicidal activity
CC(F)c1nc(N)nc(NC2CCN(c3cccc(OC(F)(F)F)c3)C2)n1 (stereo not shown) [Example E23] | very good herbicidal activity | very good herbicidal activity
CC(C)c1nc(N)nc(NC2CCN(c3cccc(OC(F)(F)F)c3)C2)n1 (stereo not shown) [Example E24] | very good herbicidal activity | very good herbicidal activity
Cc1cc(C)cc(N2CCC(Nc3nc(N)nc(C(C)(C)F)n3)C2)c1 (stereo not shown) [Example E25] | very good herbicidal activity | very good herbicidal activity
Cc1cc(C)cc(N2CCC(Nc3nc(N)nc(C(C)F)n3)C2)c1 (stereo not shown) [Example E26] | very good herbicidal activity | very good herbicidal activity
Cc1cc(C)cc(N2CCC(Nc3nc(N)nc(C(C)C)n3)C2)c1 (stereo not shown) [Example E27] | very good herbicidal activity | very good herbicidal activity
CN(c1nc(N)nc(C(C)(C)F)n1)C1CCN(c2cccc(C(F)(F)F)c2)C1 (stereo not shown) [Example E48] | very good herbicidal activity | very good herbicidal activity
CN(c1nc(N)nc(C(C)(C)F)n1)C1CCN(c2cccc(OC(F)(F)F)c2)C1 (stereo not shown) [Example E49] | very good herbicidal activity | very good herbicidal activity
Cc1cc(C)cc(N2CCC(N(C)c3nc(N)nc(C(C)(C)F)n3)C2)c1 (stereo not shown) [Example E50] | very good herbicidal activity | very good herbicidal activity
